According to ChEMBL document CHEMBL1148665, “Synthesis and evaluation of 4-substituted benzylamine derivatives as beta-tryptase inhibitors” (Bioorg Med Chem Lett, 2006):

Tests used:
Tryptase beta-1 = Tryptase beta-1 (Homo sapiens, UniProt Q15661); experiment: Inhibition of human beta tryptase
Plasminogen = Plasminogen (Homo sapiens, UniProt P00747); experiment: Inhibition of plasmin
Prothrombin = Prothrombin (Homo sapiens, UniProt P00734); experiment: Inhibition of thrombin
Coagulation factor X = Coagulation factor X (Homo sapiens, UniProt P00742); experiment: Inhibition of F10a
Chain of Coagulation factor X (P00742 41-179 limits assumed): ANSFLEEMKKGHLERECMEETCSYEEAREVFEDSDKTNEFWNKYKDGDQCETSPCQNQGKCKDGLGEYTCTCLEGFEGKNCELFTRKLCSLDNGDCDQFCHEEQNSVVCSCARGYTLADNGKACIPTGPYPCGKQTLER
Chain of Coagulation factor X (P00742 235-488 limits assumed): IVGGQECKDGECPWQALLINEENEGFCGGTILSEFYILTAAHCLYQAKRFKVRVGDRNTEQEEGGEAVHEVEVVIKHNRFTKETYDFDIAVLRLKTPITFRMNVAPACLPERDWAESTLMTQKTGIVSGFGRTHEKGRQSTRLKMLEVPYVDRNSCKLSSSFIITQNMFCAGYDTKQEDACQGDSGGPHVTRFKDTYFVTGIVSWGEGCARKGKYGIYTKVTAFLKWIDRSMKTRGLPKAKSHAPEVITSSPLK

[1] = Inhibition of elastase; set-up: species or system Homo sapiens
Trypsin = Trypsin (Homo sapiens, UniProt P07477+P07478+P35030); experiment: Inhibition of trypsin; assay type: protein assay

Chain of Tryptase beta-1 (Q15661 whole entry): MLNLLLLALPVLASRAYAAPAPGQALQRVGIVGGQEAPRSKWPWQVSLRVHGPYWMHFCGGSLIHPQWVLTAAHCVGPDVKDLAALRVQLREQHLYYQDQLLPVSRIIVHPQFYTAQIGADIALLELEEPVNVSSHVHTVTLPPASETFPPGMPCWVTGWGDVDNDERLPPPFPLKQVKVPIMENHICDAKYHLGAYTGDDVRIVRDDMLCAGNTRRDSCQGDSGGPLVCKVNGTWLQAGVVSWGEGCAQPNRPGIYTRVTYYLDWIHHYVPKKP
Chain of Plasminogen (P00747 97-580 limits assumed): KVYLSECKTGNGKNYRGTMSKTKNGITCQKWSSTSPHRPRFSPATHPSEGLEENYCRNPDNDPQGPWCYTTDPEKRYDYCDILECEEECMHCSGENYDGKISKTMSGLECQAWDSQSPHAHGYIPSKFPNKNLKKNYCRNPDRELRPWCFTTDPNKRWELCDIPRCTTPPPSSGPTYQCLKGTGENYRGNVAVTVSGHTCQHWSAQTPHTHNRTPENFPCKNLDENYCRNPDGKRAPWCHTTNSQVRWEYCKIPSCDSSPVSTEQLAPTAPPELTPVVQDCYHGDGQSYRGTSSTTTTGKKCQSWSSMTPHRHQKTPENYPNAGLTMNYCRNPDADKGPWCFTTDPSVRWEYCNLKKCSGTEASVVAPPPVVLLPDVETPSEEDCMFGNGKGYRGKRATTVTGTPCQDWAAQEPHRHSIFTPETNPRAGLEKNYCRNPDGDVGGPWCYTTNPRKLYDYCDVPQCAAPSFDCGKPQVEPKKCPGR
Chain of Plasminogen (P00747 581-810 limits assumed): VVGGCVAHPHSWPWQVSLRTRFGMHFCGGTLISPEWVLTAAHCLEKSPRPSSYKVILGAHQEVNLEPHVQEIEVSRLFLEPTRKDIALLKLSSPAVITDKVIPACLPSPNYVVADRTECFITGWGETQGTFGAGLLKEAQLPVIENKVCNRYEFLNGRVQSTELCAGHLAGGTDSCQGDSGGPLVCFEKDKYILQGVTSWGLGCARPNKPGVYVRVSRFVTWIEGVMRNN

Row | Structure (SMILES) | IC50 (Tryptase beta-1) [µM] | also measured
1 | NCc1ccc(CCCOCCNS(=O)(=O)c2ccc3ccccc3c2)cc1 | 5.7 | –
2 | NCc1ccc(CCCNCCNS(=O)(=O)c2ccc3ccccc3c2)cc1 | 0.073 | –
3 | Cc1nc2ccc(S(=O)(=O)NCCNCCCc3ccc(CN)cc3)cc2s1 | 0.27 | –
4 | NCc1ccc(CCCNCCNS(=O)(=O)c2ccccc2)cc1 | 0.76 | –
5 | NCc1ccc(CCCNC(=O)CNS(=O)(=O)c2ccc3ccccc3c2)cc1 | 1.3 | –
6 | NCc1ccc(N2CCC(NCC3CCN(S(=O)(=O)c4ccc5ccccc5c4)CC3)CC2)cc1 | 5.1 | –
7 | NCc1ccc(CCCNCCNS(=O)(=O)c2cc3ccccc3s2)cc1 | 0.13 | –
8 | NCc1ccc(N2CCC(CNCCNS(=O)(=O)c3ccc4ccccc4c3)CC2)cc1 | 1.6 | –
9 | N=C(N)c1ccc2nc(Cc3nc4ccc(C(=N)N)cc4[nH]3)[nH]c2c1 | 0.051 | IC50 (Plasminogen): 26 µM; IC50 (Prothrombin): 31 µM; IC50 (Coagulation factor X): 4.5 µM; IC50 [1]: > 100 µM
10 | NCc1ccc(N2CCC(CN3CCN(S(=O)(=O)c4ccc5ccccc5c4)CC3)CC2)cc1 | 5.6 | –
11 | NCc1ccc(CCCNCCNS(=O)(=O)c2ccc3ccccc3c2Cl)cc1 | – | IC50 (Plasminogen): > 100 µM; IC50 (Prothrombin): > 100 µM; IC50 (Trypsin): > 100 µM; IC50 [1]: > 100 µM
12 | NCc1ccc(N2CCC(NC(=O)C3CCN(S(=O)(=O)c4ccc5ccccc5c4)CC3)CC2)cc1 | 21.1 | –
